Experimental data from patent US20110218210A1, “COMPOUNDS FOR TREATING ABNORMAL CELLULAR PROLIFERATION” (priority 2007, published 2011).
Like-named read-outs stand apart in the source and are kept apart here.

What was measured:
[1] = system: leukemic cell line (U937); assay: MTS viability assay, human leukemic cell line; format: cell-based; conditions: serial two-fold dilutions beginning with 10 μM, 24 h, FIG. 3
Experimental: (§1) Leukemic stem cell lines and normal hematopoetic stem cell lines are separately maintained in cultures as described above. For viability assays, the cell lines are passed 24-36 hours prior to use in the assay, in order to test for sensitivity to specific drugs with cells in log-phase growth. Cells are plated in 96-well flat bottom plates (Greiner, Switzerland), at a concentration of 10^4 cells for the leukemic stem cell lines and normal hematopoietic stem cell lines, or 10^5 for the primary human fetal cord blood cells. Cells are plated in a final volume of 200 μl containing RPMI-1640 growth medium, supplemented as described above. Cells are either plated in medium alone, or medium containing a drug of interest. All drugs are tested in 11 different concentrations in order to derive sensitivity curves. The individual conditions were set up in triplicate wells, and at least three independent assays are performed to validate a specific observation.
(§2) The cells are cultured with the specific drug concentration for 24 hours at 37° C. in a 5% CO2 atmosphere. After culturing the cells under the experimental conditions for 23 hours, the wells are supplemented with 10 μl of the CellTiter 96 Aqueous Non-radioactive Cell Proliferation MTS reagent (Promega, Madison Wis.), and incubated in a 37° C. incubator (5% CO2) for 60 minutes. All plates are analyzed using a plate reader (Molecular Devices) using a filter set for O.D. 405. All values are used to derive standard errors, and compared among the different independent assays.
These compounds are incubated with cells using serial two-fold dilutions beginning with 10 μM.

[2] = system: leukemic stem cell clone ABM42 C31; assay: MTS viability assay, murine leukemic stem cell line; format: cell-based; conditions: serial two-fold dilutions starting from 10 μM, 24 h, FIG. 1
Experimental: as §1, §2
(§3) These compounds are screened for the ability to inhibit leukemic stem cell viability but not affect normal hematopoietic stem cells by incubating the compounds with cells using serial two-fold dilutions starting from 10 μM stocks.

[3] = format: in vivo; conditions: immune deficient mice reconstituted with murine hematopoetic stem cell lines; 7 daily injections of 1 mM concentrations
Experimental: Immune deficient mice that are reconstituted with the murine hematopoetic stem cell lines are injected with 10,000× the effective in vitro concentration of a drug. Briefly, mice are given 7 daily injections of 1 mM concentrations of one of 4-Amino-7-[(2R,3S,4S,5R)-3,4-dihydroxy-5-(hydroxymethyl)oxolan-2-yl]-6-hydrazinylpyrrolo[5,4-d]pyrimidine-5-carboxamide, 2-[(2-chloro-4-nitrophenanthridin-6-yl)amino]ethanol, and 5-(anthracen-1-ylmethylidene)-2-sulfanylidene-1,3diazinane-4,6-dione. After the 7th day the mice are monitored for overt side-effects and survival.

[4] = system: normal murine hematopoietic stem cell line "BL/6 BM"; assay: MTS viability assay, normal murine hematopoietic stem cell line; format: cell-based; conditions: serial two-fold dilutions starting from 10 μM, 24 h, FIG. 1
Experimental: as §1, §2, §3

[5] = mouse, in vivo
[6] = system: leukemic stem cells; assay: Flow cytometric analysis of apoptosis induction (7AAD); format: cell-based; conditions: 10 μM; 24 h; versus normal murine hematopoietic stem cell lines; FIG. 2
Experimental: For analysis of apoptosis in leukemic stem cells or in normal hematopoietic stem cell lines, cells are cultured (in triplicate) with the specific drug concentration for 24 hours at 37° C. in a 5% CO2 atmosphere. Cell suspensions obtained from cultured cells are washed twice in FACS buffer, incubated for 20 minutes with 4 μM 7-aminoactinomycin-D (7AAD, Calbiochem), and washed with FACS buffer. Stained cells are resuspended in PBS and analyzed immediately on a flow cytometer.
4-Amino-7-[(2R,3S,4S,5R)-3,4-dihydroxy-5-(hydroxymethyl)oxolan-2-yl]-6-hydrazinylpyrrolo[5,4-d]pyrimidine-5-carboxamide, 2-[(2-chloro-4-nitrophenanthridin-6-yl)amino]ethanol, and 5-(anthracen-1-ylmethylidene)-2-sulfanylidene-1,3diazinane-4,6-dione preferentially kill murine leukemic stem cell viability vs. normal murine hematopoietic stem cell line. These compounds are screened to determine whether the effect of the compounds on reduced viability was due to inhibiting proliferation, or direct killing through apoptosis. The cells are analyzed by flow cytometric analysis for the exclusion of 7-aminoactinomycin-D (7AAD). At a concentration of 10 μM, cells are incubated in a 5% CO2 atmosphere for 24 h. After two washes in 1×PBS the cells are incubated with 4 μM 7-aminoactinomycin-D (7AAD) for 20 min.

[7] = system: ABM 42 C31 leukemic stem cells; assay: Therapeutic trial: survival of mice transplanted with leukemic stem cells (pre-clinical model of AML); format: in vivo; conditions: 7 daily injections of 250 ul of 10 uM solution, intravenously, from clinical signs (about 15 d post-transplant); FIG. 5
Excerpt: Groups of 3-5 mice are utilized for each of the experimental protocols. Transplantation of tumors is done by injecting 10^3 cells intravenously into cohorts of sub-lethally irradiated (450R)C57/BL6/Rag −/− mice ranging in age from 4-6 weeks. The mice are monitored daily for clinical signs of disease. These clinical signs included externally evident splenomegaly, a hunched posture and reduce mobility, labored breathing, dehydration, scruffy fur and an ascending paralysis in a minority of cases. […] The mice then receive daily injections of the indicated agents for 7 days. Mice are held indefinitely to ascertain rates of survival.
Into cohorts of sublethally irradiated mice are transplanted 10^3 ABM 42 C31 leukemic stem cells. Treatment of the mice when they develop clinical signs of disease (hunched posture, rapid breathing, scruffled fur at approximately 15d post-transplant). Mice receive 7 daily injections of 250 ul XPBS solutions containing 10 uM concentrations of 4-Amino-7-[(2R,3S,4S,5R)-3,4-dihydroxy-5-(hydroxymethyl)oxolan-2-yl]-6-hydrazinylpyrrolo[5,4-d]pyrimidine-5-carboxamide, 2-[(2-chloro-4-nitrophenanthridin-6-yl)amino]ethanol, and 5-(anthracen-1-ylmethylidene)-2-sulfanylidene-1,3diazinane-4,6-dione. After the 7th day the mice are monitored for survival. FIG. 5 illustrates that administration of the compounds delay mortality in a pre-clinical model of AML disease.

[8] = Bone marrow toxicity in mice (FIG. 17); conditions: compared to mice treated with methotrexate (MTX)
[9] = system: primary unmanipulated fetal cord blood cells; assay: MTS viability assay, primary fetal cord blood cells; format: cell-based, human; conditions: at the drug concentrations tested (two-fold dilutions from 10 μM), 24 h, FIG. 4
Experimental: as §1
The cells are cultured with the specific drug concentration for 24 hours at 37° C. in a 5% CO2 atmosphere. […] All plates are analyzed using a plate reader (Molecular Devices) using a filter set for O.D. 405. […]

[10] = system: leukemic stem cells; assay: Killing of leukemic stem cells (FIG. 6); format: cell-based
[11] = system: normal hematopoietic stem cells; assay: Effect on normal hematopoietic stem cells (FIG. 6); format: cell-based

SMILES | viability of human leukemic cell lines [1] | viability of leukemic stem cells [2] | mortality [3] | viability of normal murine hematopoietic stem cell line [4] | bone marrow toxicity [5] | apoptosis induction (7AAD positive/GFP negative) [6] | survival of mice transplanted with leukemic stem cells [7] | bone marrow toxicity [8] | viability of primary unmanipulated fetal cord blood cultures [9] | effect on leukemic stem cells [10] | effect on normal hematopoietic stem cells [11]
O=[N+]([O-])c1cc(Cl)cc2c1nc(NCCO)c1ccccc12 [2-[(2-chloro-4-nitrophenanthridin-6-yl)amino]ethanol] | preferentially inhibited viability of the leukemic cell lines | preferentially inhibited viability | none of the mice died | but not the normal murine hematopoietic stem cell line | less bone marrow toxicity | induce apoptosis preferentially in leukemic stem cells | increase survival | – | – | – | –
NNc1c(C(N)=O)c2c(N)ncnc2n1[C@@H]1O[C@H](CO)[C@@H](O)[C@@H]1O [4-amino-7-[(2R,3S,4S,5R)-3,4-dihydroxy-5-(hydroxymethyl)oxolan-2-yl]-6-hydrazinylpyrrolo[5,4-d]pyrimidine-5-carboxamide] | preferentially inhibited viability of the leukemic cell lines | preferentially inhibited viability | none of the mice died | but not the normal murine hematopoietic stem cell line | – | induce apoptosis preferentially in leukemic stem cells | increase survival | less bone marrow toxicity | – | – | –
O=C1NC(=S)NC(=O)C1=Cc1cccc2cc3ccccc3cc12 [5-(anthracen-1-ylmethylidene)-2-sulfanylidene-1,3diazinane-4,6-dione] | preferentially inhibited viability of the leukemic cell lines | preferentially inhibited viability | none of the mice died | but not the normal murine hematopoietic stem cell line | – | induce apoptosis preferentially in leukemic stem cells | increase survival | less bone marrow toxicity | no decrease in viability | – | –
CN(Cc1cnc2nc(N)nc(N)c2n1)c1ccc(C(=O)N[C@@H](CCC(=O)O)C(=O)O)cc1 [methotrexate] | – | – | – | – | – | – | – | – | – | killed | killed
